Reference: patent publication US10011607B2, “Ethynyl derivatives” (Hoffmann-La Roche Inc., priority 2015, dated 2018)

Legend:
[1] = test system: mice treated with MPTP; conditions: cited from earlier work
[2] = test system: mice (model of anxiety); conditions: reported by Addex 2010; cited from earlier work
[3] = test system: rats (model of anxiety); conditions: cited from earlier work
[4] = test system: mice (model of anxiety); conditions: reported by Addex 2010; cited from earlier work; remark: listed apart in the source
[5] = target: human mGlu4 receptor (Homo sapiens (Human), UniProt Q14833); assay: Ca2+ mobilization in vitro assay on recombinant human mGlu4 expressed in HEK293 cells (PAM); format: cell-based; conditions: for Emax: HEK293, maximal response in % of maximal stimulatory effect of saturating L-AP4, read-out: Eff. (%); for EC50: HEK293 cells, human mGlu4, in presence of EC20 of L-AP4, read-out: EC50 (nM) mGlu4PAM
Summary of the method: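 HEK293 cells stably expressing human mGlu4 at low level, Fluo-4AM loaded; compound (11 half-log dilutions) pre-incubated 10–30 min at 37 °C, then L-AP4 added at EC20 (determined daily). Peak fluorescence minus basal, normalized to saturating L-AP4; EC50, Hill slope and % Emax from four-parameter fit.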

[6] = test system: 6-OHDA rodent model of PD; conditions: cited from earlier work

human mGlu4 receptor, sequence (Q14833 33-912): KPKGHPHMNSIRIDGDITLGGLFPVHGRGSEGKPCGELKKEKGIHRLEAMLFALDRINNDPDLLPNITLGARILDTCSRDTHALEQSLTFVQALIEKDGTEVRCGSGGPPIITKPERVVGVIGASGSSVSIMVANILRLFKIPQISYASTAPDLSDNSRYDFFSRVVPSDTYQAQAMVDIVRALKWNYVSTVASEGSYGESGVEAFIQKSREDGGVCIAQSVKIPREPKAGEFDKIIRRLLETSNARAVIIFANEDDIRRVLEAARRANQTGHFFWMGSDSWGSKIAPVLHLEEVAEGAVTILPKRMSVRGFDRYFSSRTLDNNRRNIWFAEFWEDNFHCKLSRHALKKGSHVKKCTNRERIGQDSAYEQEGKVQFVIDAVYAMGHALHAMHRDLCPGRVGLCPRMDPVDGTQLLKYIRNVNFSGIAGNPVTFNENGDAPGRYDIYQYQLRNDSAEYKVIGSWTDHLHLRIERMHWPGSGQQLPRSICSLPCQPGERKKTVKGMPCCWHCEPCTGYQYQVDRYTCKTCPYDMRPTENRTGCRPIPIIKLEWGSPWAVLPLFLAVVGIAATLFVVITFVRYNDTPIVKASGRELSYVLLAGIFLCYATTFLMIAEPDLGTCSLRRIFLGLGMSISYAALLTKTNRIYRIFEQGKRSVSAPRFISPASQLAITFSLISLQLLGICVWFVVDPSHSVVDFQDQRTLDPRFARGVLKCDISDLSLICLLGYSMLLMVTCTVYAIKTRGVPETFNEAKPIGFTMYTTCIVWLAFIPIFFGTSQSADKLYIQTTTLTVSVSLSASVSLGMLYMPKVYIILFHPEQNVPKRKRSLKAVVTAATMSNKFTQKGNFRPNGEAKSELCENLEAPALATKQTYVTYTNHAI

In the case of `O=C(Nc1ccccc1)C12CC1/C(=N\O)c1ccccc1O2` (single isomer, unassigned; (-)) [(−)-PHCCC], the nigrostriatal degeneration [1] is listed as “reduced nigrostriatal degeneration”.
In the case of `Cc1ccnc(Nc2nc(-c3cn[nH]c3)c(C)s2)n1` [ADX88178], the “activity in EPM” value [2] is listed as “active”, the “profile in rat EPM test” value ([3]; rat, after oral dosing) is listed as “anxiolytic-like profile” and the “activity in EPM” value ([3]; rats, reported by Addex 2010) is listed as “active”. For the same compound, the “activity in marble burying test” value [4] was “active”.
Work on `COC[C@@]12CC(=O)N(c3c(F)cc(C#Cc4ccccc4)cc3F)C(=O)N1CCN(c1cnn(C)c1)C2=O` [Example 105, (9aR)-7-[2,6-difluoro-4-(2-phenylethynyl)phenyl]-9a-(methoxymethyl)-2-(1-methylpyrazol-4-yl)-4,9-dihydro-3H-pyrazino[1,2-c]pyrimidine-1,6,8-trione] yielded an Emax [5] of 144% and an EC50 [5] of 61 nM.
`CC[C@@]12CC(=O)N(c3c(F)cc(C#Cc4ccccc4)cc3F)C(=O)N1CCN(c1cccnc1)C2=O` [Example 106, (9aS)-7-[2,6-difluoro-4-(2-phenylethynyl)phenyl]-9a-ethyl-2-(3-pyridyl)-4,9-dihydro-3H-pyrazino[1,2-c]pyrimidine-1,6,8-trione] gave an Emax [5] of 112% and an EC50 [5] of 95 nM.
`CC[C@@]12CC(=O)N(c3c(F)cc(C#Cc4ccccc4)cc3F)C(=O)N1CCN(c1cnn(C)c1)C2=O` [Example 107, (9aS)-7-[2,6-difluoro-4-(2-phenylethynyl)phenyl]-9a-ethyl-2-(1-methylpyrazol-4-yl)-4,9-dihydro-3H-pyrazino[1,2-c]pyrimidine-1,6,8-trione] showed an Emax [5] of 125% and an EC50 [5] of 104 nM.
Work on `C[C@@]12CC(=O)N(c3c(F)cc(C#Cc4ccccc4F)cc3F)C(=O)N1CCN(c1cccnc1)C2=O` [Example 109, (9aS)-7-[2,6-difluoro-4-[2-(2-fluorophenyl)ethynyl]phenyl]-9a-methyl-2-(3-pyridyl)-4,9-dihydro-3H-pyrazino[1,2-c]pyrimidine-1,6,8-trione] yielded an Emax [5] of 85% and an EC50 [5] of 56 nM.
`C[C@@]12CC(=O)N(c3c(F)cc(C#Cc4ccccc4F)cc3F)C(=O)N1CCN(c1ccncn1)C2=O` [Example 110, (9aS)-7-[2,6-difluoro-4-[2-(2-fluorophenyl)ethynyl]phenyl]-9a-methyl-2-pyrimidin-4-yl-4,9-dihydro-3H-pyrazino[1,2-c]pyrimidine-1,6,8-trione] showed an Emax [5] of 90% and an EC50 [5] of 31 nM.
Compound `Cn1cc(N2CCN3C(=O)N(c4c(F)cc(C#Cc5ccccc5F)cc4F)C(=O)C[C@@]3(C)C2=O)cn1` [Example 111, (9aS)-7-[2,6-difluoro-4-[2-(2-fluorophenyl)ethynyl]phenyl]-9a-methyl-2-(1-methylpyrazol-4-yl)-4,9-dihydro-3H-pyrazino[1,2-c]pyrimidine-1,6,8-trione] has an Emax [5] of 120% and an EC50 [5] of 56 nM.
For `N[C@@H](CCP(=O)(O)O)C(=O)O` [L-AP4, (2S)-2-amino-4-phosphonobutanoic acid], the neuroprotection [6] is listed as “neuroprotective effects”.
